Values joined by “and” are separate entries in the source; they are usually repeats but may differ in a detail not shown here. Identical values can stand only once.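 Cells were grown in 96-well plates and exposed to each compound for 48 hours at five concentrations; endpoints were interpolated linearly between bracketing concentrations, or set to the highest concentration if not reached. The concentration for full growth arrest is given as TGI.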

This is an account of results in PubChem BioAssay (NCI).

The first test has as its system SK-OV-3 ovarian. Nature of the test: growth of human tumour cells (NCI), 48 h.
The compound `CCN(CC)c1c(C(=O)/C=C/c2ccccc2)c(-c2ccccc2)nn(C)c1=O` returned a TGI above 100 µM.
The same measure, in the same setting: with `NC(N)=NS(=O)(=O)c1ccc(NCc2c3ccccc3[n+]([O-])c3ccccc23)cc1` the figure was above 100 µM.
Consider `COC(=O)C(CCC#N)(CCC#N)C(=O)OC`, for which the TGI is above 100 µM.

A further test concerns NCI-H460 lung. Nature of the test: growth of human tumour cells (NCI), 48 h.
For the compound `CCN(CC)c1c(C(=O)/C=C/c2ccccc2)c(-c2ccccc2)nn(C)c1=O`, the TGI was above 100 µM.
`NC(N)=NS(=O)(=O)c1ccc(NCc2c3ccccc3[n+]([O-])c3ccccc23)cc1` registered a TGI above 100 µM.
The same measure, in the same setting: with `COC(=O)C(CCC#N)(CCC#N)C(=O)OC` the figure was above 100 µM.
Same read-out and setting: with `O=C(O)CC/C(=N\Nc1nsc2ccccc12)c1ccccc1` the figure was above 100 µM.

A further test deals with LOX IMVI melanoma. Nature of the test: growth of human tumour cells (NCI), 48 h.
Compound `CCN(CC)c1c(C(=O)/C=C/c2ccccc2)c(-c2ccccc2)nn(C)c1=O` displayed a TGI of 35.9 µM.
On the same count and under the same terms, to `NC(N)=NS(=O)(=O)c1ccc(NCc2c3ccccc3[n+]([O-])c3ccccc23)cc1` belongs 90.9 µM; to `COC(=O)C(CCC#N)(CCC#N)C(=O)OC`, above 100 µM.
Consider `O=C(O)CC/C(=N\Nc1nsc2ccccc12)c1ccccc1`, for which the TGI is above 100 µM.

The next test has as its system RXF 393 renal. In words: growth of human tumour cells (NCI), 48 h.
`CCN(CC)c1c(C(=O)/C=C/c2ccccc2)c(-c2ccccc2)nn(C)c1=O` returned a TGI above 100 µM.
Turning to `O=C(O)CC/C(=N\Nc1nsc2ccccc12)c1ccccc1`, the TGI is above 100 µM.

For a further test, the system named is UACC-257 melanoma. Nature of the test: growth of human tumour cells (NCI), 48 h.
For the compound `CCN(CC)c1c(C(=O)/C=C/c2ccccc2)c(-c2ccccc2)nn(C)c1=O`, the TGI was above 100 µM.
`NC(N)=NS(=O)(=O)c1ccc(NCc2c3ccccc3[n+]([O-])c3ccccc23)cc1` had a TGI above 100 µM.
`COC(=O)C(CCC#N)(CCC#N)C(=O)OC`: the TGI is above 100 µM.
Still for that read-out and setting: to `O=C(O)CC/C(=N\Nc1nsc2ccccc12)c1ccccc1` belongs above 100 µM.

For the next test, the system named is OVCAR-3 ovarian. Nature of the test: growth of human tumour cells (NCI), 48 h.
Take `NC(N)=NS(=O)(=O)c1ccc(NCc2c3ccccc3[n+]([O-])c3ccccc23)cc1`: the TGI was above 100 µM.
Same read-out and setting: to `COC(=O)C(CCC#N)(CCC#N)C(=O)OC` belongs above 100 µM; to `O=C(O)CC/C(=N\Nc1nsc2ccccc12)c1ccccc1`, 75.3 µM.

For a further test, the system named is A549 NSCLC. Nature of the test: growth of human tumour cells (NCI), 48 h.
`CCN(CC)c1c(C(=O)/C=C/c2ccccc2)c(-c2ccccc2)nn(C)c1=O` displayed a TGI above 100 µM.
Same read-out and setting: to `NC(N)=NS(=O)(=O)c1ccc(NCc2c3ccccc3[n+]([O-])c3ccccc23)cc1` belongs above 100 µM.
In turn, `COC(=O)C(CCC#N)(CCC#N)C(=O)OC` yielded a TGI above 100 µM.
For `O=C(O)CC/C(=N\Nc1nsc2ccccc12)c1ccccc1`, the TGI was above 100 µM.

The test system of another test is SK-MEL-5 melanoma. In words: growth of human tumour cells (NCI), 48 h.
In the case of `CCN(CC)c1c(C(=O)/C=C/c2ccccc2)c(-c2ccccc2)nn(C)c1=O`, the TGI is above 100 µM.
On the same count and under the same terms, to `NC(N)=NS(=O)(=O)c1ccc(NCc2c3ccccc3[n+]([O-])c3ccccc23)cc1` belongs 33.5 µM; to `COC(=O)C(CCC#N)(CCC#N)C(=O)OC`, above 100 µM; to `O=C(O)CC/C(=N\Nc1nsc2ccccc12)c1ccccc1`, above 100 µM.

The next test deals with SK-MEL-2 melanoma. Nature of the test: growth of human tumour cells (NCI), 48 h.
As for `NC(N)=NS(=O)(=O)c1ccc(NCc2c3ccccc3[n+]([O-])c3ccccc23)cc1`, the TGI was above 100 µM.
Turning to `O=C(O)CC/C(=N\Nc1nsc2ccccc12)c1ccccc1`, the TGI was above 100 µM.

The subject of the next test is UO-31 renal. In words: growth of human tumour cells (NCI), 48 h.
On to `CCN(CC)c1c(C(=O)/C=C/c2ccccc2)c(-c2ccccc2)nn(C)c1=O`, for which the TGI was above 100 µM.
For the compound `NC(N)=NS(=O)(=O)c1ccc(NCc2c3ccccc3[n+]([O-])c3ccccc23)cc1`, the TGI is 73.8 µM.
Turning to `COC(=O)C(CCC#N)(CCC#N)C(=O)OC`, the TGI is above 100 µM.
The compound `O=C(O)CC/C(=N\Nc1nsc2ccccc12)c1ccccc1` returned a TGI above 100 µM.

For the next test, the system named is CAKI-1 renal. Nature of the test: growth of human tumour cells (NCI), 48 h.
On to `CCN(CC)c1c(C(=O)/C=C/c2ccccc2)c(-c2ccccc2)nn(C)c1=O`, for which the TGI is above 100 µM.
The same measure, in the same setting: to `NC(N)=NS(=O)(=O)c1ccc(NCc2c3ccccc3[n+]([O-])c3ccccc23)cc1` belongs above 100 µM.

The next test has as its system SF-295 CNS. Nature of the test: growth of human tumour cells (NCI), 48 h.
As to `CCN(CC)c1c(C(=O)/C=C/c2ccccc2)c(-c2ccccc2)nn(C)c1=O`, the TGI was above 100 µM.
Same read-out and setting: to `Nc1nc(=S)c2ncn(C3CC(O)C(CO)O3)c2[nH]1` (stereo not drawn) belongs 382 µM and 3310 µM; to `NC(N)=NS(=O)(=O)c1ccc(NCc2c3ccccc3[n+]([O-])c3ccccc23)cc1`, above 100 µM.
Same read-out and setting: to `COC(=O)C(CCC#N)(CCC#N)C(=O)OC` belongs above 100 µM.

The test system of a further test is UACC-62 melanoma. Nature of the test: growth of human tumour cells (NCI), 48 h.
Regarding `CCN(CC)c1c(C(=O)/C=C/c2ccccc2)c(-c2ccccc2)nn(C)c1=O`, the TGI was above 100 µM.
`NC(N)=NS(=O)(=O)c1ccc(NCc2c3ccccc3[n+]([O-])c3ccccc23)cc1` yielded a TGI above 100 µM.
Still for that read-out and setting: to `COC(=O)C(CCC#N)(CCC#N)C(=O)OC` belongs above 100 µM; to `O=C(O)CC/C(=N\Nc1nsc2ccccc12)c1ccccc1`, above 100 µM.

The test system of a further test is SNB-78 CNS. Nature of the test: growth of human tumour cells (NCI), 48 h.
For the compound `Nc1nc(=S)c2ncn(C3CC(O)C(CO)O3)c2[nH]1` (stereo not drawn), the TGI was above 5000 µM.
Compound `NC(N)=NS(=O)(=O)c1ccc(NCc2c3ccccc3[n+]([O-])c3ccccc23)cc1` yielded a TGI above 100 µM.
`O=C(O)CC/C(=N\Nc1nsc2ccccc12)c1ccccc1` showed a TGI above 100 µM.

Another test has as its system HT29 colon. In words: growth of human tumour cells (NCI), 48 h.
With `CCN(CC)c1c(C(=O)/C=C/c2ccccc2)c(-c2ccccc2)nn(C)c1=O`, the TGI was above 100 µM.
Same read-out and setting: with `Nc1nc(=S)c2ncn(C3CC(O)C(CO)O3)c2[nH]1` (stereo not drawn) the figure was > 466 µM and 2190 µM.
On the same count and under the same terms, with `NC(N)=NS(=O)(=O)c1ccc(NCc2c3ccccc3[n+]([O-])c3ccccc23)cc1` the figure was above 100 µM; with `COC(=O)C(CCC#N)(CCC#N)C(=O)OC`, above 100 µM.
Same read-out and setting: to `O=C(O)CC/C(=N\Nc1nsc2ccccc12)c1ccccc1` belongs above 100 µM.

Another test has as its system M19-MEL melanoma. Nature of the test: growth of human tumour cells (NCI), 48 h.
`CCN(CC)c1c(C(=O)/C=C/c2ccccc2)c(-c2ccccc2)nn(C)c1=O` came in with a TGI above 100 µM.
